Experimental data reported in ChEMBL document CHEMBL1201862, “PubChem BioAssay data set” (2004).
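These data come from cells grown in 96-well plates and exposed to compound for 48 hours at five concentrations. GI50: concentration for 50% inhibition of growth.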 Active and inactive are the calls of the source. Cut-off read from the data, not from the text of the source: active = GI50 up to about 1.1 µM and inactive = higher.

Experiments:
Experiment in all cases: inhibition of tumour cell growth, NCI panel, 48 h
[1] = system: U-251
[2] = system: NCI-H460
[3] = system: SK-MEL-5
[4] = system: HL-60
[5] = system: MDA-MB-435
[6] = system: OVCAR-5
[7] = system: T47D
[8] = system: HCT-15
[9] = system: SW-620
[10] = system: SF-268
[11] = system: CCRF-CEM
[12] = system: UACC-257
[13] = system: PC-3
[14] = system: OVCAR-4
[15] = system: IGROV-1
[16] = system: MDA-N
[17] = system: NCI-H226
[18] = system: LOX IMVI
[19] = system: HT-29
[20] = system: NCI/ADR-RES
[21] = system: KM12
[22] = system: MCF7
[23] = system: HOP-62
[24] = system: ACHN
[25] = system: UACC-62
[26] = system: BT-549
[27] = system: Hs-578T
[28] = system: COLO 205
[29] = system: OVCAR-8
[30] = system: 786-0
[31] = system: Malme-3M
[32] = system: NCI-H522
[33] = system: K562
[34] = system: EKVX
[35] = system: RPMI-8226
[36] = system: M14
[37] = system: DU-145
[38] = system: A549
[39] = system: HCT-116
[40] = system: SN12C
[41] = system: SK-MEL-28
[42] = system: HCC 2998
[43] = system: SK-OV-3
[44] = system: CAKI-1
[45] = system: NCI-H23
[46] = system: MOLT-4
[47] = system: SF-539
[48] = system: SNB-75
[49] = system: MDA-MB-231
[50] = system: OVCAR-3
[51] = system: SF-295
[52] = system: RXF 393
[53] = system: SK-MEL-2
[54] = system: TK-10
[55] = system: SNB-19
[56] = system: A498
[57] = system: HOP-92
[58] = system: UO-31

With `NC(=S)NS(=O)(=O)c1ccc(Cl)cc1` the GI50 [1] was > 100 µM (inactive), the GI50 [2] was > 100 µM (inactive) and the GI50 [3] was > 100 µM (inactive). For the same molecule, the GI50 [4] was > 100 µM (inactive), the GI50 [5] was > 100 µM (inactive) and the GI50 [6] was > 100 µM (inactive). The GI50 [7] was > 100 µM (inactive), the GI50 [8] was > 100 µM and the GI50 [9] was > 100 µM (inactive). The GI50 [10] was > 100 µM (inactive), the GI50 [11] was > 100 µM (inactive) and the GI50 [12] was > 100 µM (inactive). For the same molecule, the GI50 [13] was > 100 µM (inactive), the GI50 [14] was > 100 µM (inactive) and the GI50 [15] was > 100 µM (inactive). The GI50 [16] was > 100 µM (inactive), the GI50 [17] was > 100 µM (inactive) and the GI50 [18] was > 100 µM (inactive). The GI50 [19] was > 100 µM (inactive), the GI50 [20] was > 100 µM (inactive) and the GI50 [21] was > 100 µM (inactive). For the same molecule, the GI50 [22] was > 100 µM (inactive), the GI50 [23] was > 100 µM (inactive) and the GI50 [24] was > 100 µM (inactive). For the same molecule, the GI50 [25] was > 100 µM (inactive), the GI50 [26] was > 100 µM (inactive) and the GI50 [27] was > 100 µM (inactive). For the same molecule, the GI50 [28] was > 100 µM (inactive), the GI50 [29] was > 100 µM (inactive) and the GI50 [30] was > 100 µM (inactive). For the same molecule, the GI50 [31] was > 100 µM (inactive), the GI50 [32] was > 100 µM (inactive) and the GI50 [33] was > 100 µM (inactive). For the same molecule, the GI50 [34] was 83.2 µM (inactive), the GI50 [35] was > 100 µM (inactive) and the GI50 [36] was > 100 µM (inactive). For the same molecule, the GI50 [37] was > 100 µM (inactive), the GI50 [38] was > 100 µM (inactive) and the GI50 [39] was > 100 µM (inactive). For the same molecule, the GI50 [40] was > 100 µM (inactive), the GI50 [41] was > 100 µM (inactive) and the GI50 [42] was > 100 µM (inactive). The GI50 [43] was > 100 µM (inactive), the GI50 [44] was > 100 µM (inactive) and the GI50 [45] was > 100 µM (inactive). The GI50 [46] was > 100 µM (inactive), the GI50 [47] was > 100 µM (inactive) and the GI50 [48] was > 100 µM (inactive). The GI50 [49] was > 100 µM (inactive), the GI50 [50] was > 100 µM (inactive) and the GI50 [51] was > 100 µM (inactive). For the same molecule, the GI50 [52] was > 100 µM (inactive), the GI50 [53] was > 100 µM (inactive) and the GI50 [54] was > 100 µM (inactive). The GI50 [55] was > 100 µM (inactive).
In the case of `CCNc1nc(N)c(C(=O)c2cccs2)s1`, the GI50 [1] was 22.5 µM (inactive), the GI50 [2] was 20.4 µM (inactive) and the GI50 [56] was 31 µM (inactive). The GI50 [3] was 18.1 µM (inactive), the GI50 [4] was 4.1 µM (inactive) and the GI50 [57] was 41.2 µM (inactive). The GI50 [5] was 20.9 µM (inactive), the GI50 [6] was 31.3 µM (inactive) and the GI50 [7] was 19.1 µM (inactive). The GI50 [8] was 14.9 µM, the GI50 [9] was 8.59 µM (inactive) and the GI50 [10] was 32.8 µM (inactive). For the same molecule, the GI50 [12] was 46.9 µM (inactive), the GI50 [13] was 31.5 µM (inactive) and the GI50 [14] was 21.1 µM (inactive). The GI50 [15] was 10.6 µM (inactive), the GI50 [16] was 25.6 µM (inactive) and the GI50 [17] was 24.2 µM (inactive). The GI50 [18] was 18.4 µM (inactive), the GI50 [19] was 17.2 µM (inactive) and the GI50 [20] was 35 µM (inactive). The GI50 [21] was 11.8 µM (inactive), the GI50 [22] was 22 µM (inactive) and the GI50 [23] was 30.9 µM (inactive). For the same molecule, the GI50 [24] was 22.3 µM (inactive), the GI50 [25] was 24.2 µM (inactive) and the GI50 [26] was 20.8 µM (inactive). The GI50 [27] was 38.1 µM (inactive), the GI50 [28] was 7.05 µM (inactive) and the GI50 [29] was 24.7 µM (inactive). For the same molecule, the GI50 [30] was 26.6 µM (inactive), the GI50 [31] was 43.3 µM (inactive) and the GI50 [58] was 38 µM (inactive). The GI50 [32] was 26.3 µM (inactive), the GI50 [33] was 25.9 µM (inactive) and the GI50 [34] was 26.2 µM (inactive). The GI50 [36] was 37.8 µM (inactive), the GI50 [37] was 8.99 µM (inactive) and the GI50 [38] was 29.8 µM (inactive). The GI50 [39] was 9.86 µM (inactive), the GI50 [40] was 30 µM (inactive) and the GI50 [41] was 31 µM (inactive). The GI50 [42] was 34.3 µM (inactive), the GI50 [43] was 36.4 µM (inactive) and the GI50 [44] was 8.69 µM (inactive). For the same molecule, the GI50 [45] was 20.9 µM (inactive), the GI50 [46] was 17.6 µM (inactive) and the GI50 [47] was 15.5 µM (inactive). The GI50 [48] was 10.4 µM (inactive), the GI50 [49] was 50.4 µM (inactive) and the GI50 [50] was 22 µM (inactive). The GI50 [51] was 34 µM (inactive), the GI50 [52] was 3.42 µM (inactive) and the GI50 [53] was 16.5 µM (inactive). For the same molecule, the GI50 [54] was 48 µM (inactive) and the GI50 [55] was 40.7 µM (inactive).
